Reference: patent US20240342158A1, “METHOD OF TREATING AND/OR PREVENTING TYPE 1 DIABETES WITH CEPHARANTHINE” (ALBERT EINSTEIN COLLEGE OF MEDICINE, priority 2021, published 2024)

Assays:
[1] = test system: humanized NOD-DR3 mice immunized with Tg.1571, GAD.492 and TPO.758; experiment: Blocking the induction of APS3v in vivo: T-cell stimulation by CFSE analysis; parameters: stimulation index, T cell proliferation induced by GAD.492 / stimulation index, T cell proliferation induced by TPO.758 / T-cell proliferation induced by Tg.1571: dose or concentration left out as unconfirmed
Experimental: Blocking the Induction of APS3v by cepharanthine In Vivo: […] with the peptide mix of Tg.1571, GAD.492 and TPO.758 on day 0; mice were injected with cepharanthine IP again on days 5 and 6 prior to immunization with the same peptide mix on day 7. As controls, four humanized NOD-DR3 littermates were injected with the vehicle that was used to dissolve cepharanthine for in vivo studies [ethanol: PEG400 (Fisher Scientific): saline (5:20:75)] (Frontage Laboratories, Exton, PA) using the same timeline for immunizations.
T-Cell Stimulation and CFSE Analysis: Cells harvested from the spleen and draining lymph nodes of immunized mice were resuspended at 2×10^6 cells/ml in 0.1% BSA/PBS. 1×10^6 cells were labeled with 1.5 μM carboxyfluorescein diacetate succinimidyl ester (CFSE) (Life Technologies). After incubating for 10 min at 37° C., the staining was terminated by the addition of 4 volumes of ice-cold RPMI with 10% FBS. After incubating on ice for 5 min, the cells were washed three times with fresh RPMI and resuspended in fresh medium for counting.
The CFSE-labeled cells were plated at 2×10^5 cells/well in 100 μl medium (RPMI, 10% FBS). The cells were incubated with: medium, Tg.1571, GAD.492, TPO.758 (20 μg/ml), a negative control peptide (NC) (20 μg/ml), or mouse anti-CD3/CD28 beads (Life Technologies) that activate all CD4+ T-cells nonspecifically, as a positive control. The cells were collected after 5 days for flow cytometry analysis. All experiments were performed in quadruplicates. The results were analyzed using Flowjo (Tree Star, Ashland, OR). The stimulation index was calculated by using the following formula: stimulation index=[% proliferating lymphocytes (peptide/mitogen-treated)]/[% proliferating lymphocytes (medium-treated)].
Four humanized NOD-DR3mice were treated with cepharanthine (S53) or vehicle (used to dissolve cepharanthine) for 2 consecutive days before each of the two immunizations with Tg.1571,GAD.492 and TPO.758 peptide mix. At sacrifice, splenocytes and draining lymph node cells were incubated with each peptide and labeled with CFSE for 5 days for T-cell stimulation analysis. Briefly, the CFSE labeled cells were plated at 2×10^5 cells/well in 100 μl medium (RPMI, 10% FBS).The cells were incubated with: medium, Tg.1571, GAD.492, TPO.758 (20 μg/ml), a negative control peptide (NC) (20 μg/ml), or mouse anti-CD3/CD28 beads (Life Technologies) that activate all CD4+ T-cells non-specifically, as a positive control. The cells were collected after 5 days for flow cytometry analysis (see Materials and Methods for details).

humanized NOD-DR3 mice = experiment: Free T4 and anti-mouse Tg antibody levels in cepharanthine-treated immunized mice; type: in vivo; conditions: data not shown
Experimental: Autoantibody Measurements: Sera were collected from mice upon sacrifice and stored in −20° C. Nunc™ Maxisorp™ ELISA plate (Thermo Fisher Scientific, Waltham, MA) was coated with 10 μg/ml of either Tg.1571, GAD.492, TPO.758 or mouse Tg in bicarbonate buffer (Sigma-Aldrich) at pH 9.6 and incubated overnight. The ELISA plate was washed 4 times with PBS supplemented with 0.05% Tween (Sigma-Aldrich) [PBST]. After blocking with 2.5% BSA in PBST for 1 h at 37° C., the plate was washed with PBST for 6 times. 100 μl of the diluted sera (1:100 in 0.5% BSA/PBS) was added for 2 h with slow shaking at room temperature. After washing for 6 times with PBST, anti-mouse IgG secondary antibody (Sigma-Aldrich) was added at 1:30,000 dilution in 1% BSA/PBST and incubated for 30 min at 37° C. After washing the plate for 4 times with PBST, the freshly prepared paranitrophenylphosphate substrate (Sigma-Aldrich) was added for 1 h and the plate was read at 405 nm using the BMG reader (BMG Labtech, Cary, NC).
Free T4 Measurements: Sera were collected from mice and were assayed for free thyroxin (fT4) measurements using free thyroxine ELISA kit (Alpha Diagnostic International, San Antonio, TX, catalog no. 1110). Assay was performed according to manufacturer's protocol. […] Absorbance at 450 nm was measured using a BMG ELISA reader (BMG Labtech). […]

COc1ccc2cc1Oc1ccc(cc1)C[C@H]1c3c(cc4c(c3Oc3cc5c(cc3OC)CCN(C)[C@@H]5C2)OCO4)CCN1C [S53, Cepharanthine]
stimulation index, T cell proliferation induced by GAD.492 ([1]; -1, 5, 6, CFSE, 5 days, vehicle control 3.21): 1.53
stimulation index, T cell proliferation induced by TPO.758 ([1]; -1, 5, 6, CFSE, 5 days, vehicle control 6.39): 3.11
T-cell proliferation induced by Tg.1571 ([1]; -1, 5, 6, CFSE, 5 days, vs vehicle): suppressed T-cell proliferation induced by Tg.1571, although not statistically significant
T-cell activation (lymphocyte proliferation, CFSE) in treated mice vs vehicle treated controls ([1]; IV on days -2, -1, 5 and 6 at 1 mg/kg, sacrificed day 21): significantly suppressed T-cell activation
antibody levels against mouse Tg (humanized NOD-DR3 mice): did not significantly affect
free T4 levels (humanized NOD-DR3 mice): did not significantly affect
